Experimental data from PubChem BioAssay (NCI).
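Interpolation was linear, between the two tested concentrations surrounding the appropriate level; five concentrations were tested over 48 hours in 96-well plates. TGI marks complete inhibition of growth.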

How the values were obtained:
Assay in all cases: NCI-60 cell line screen, 48 h
[1] = system: HOP-62 NSCLC
[2] = system: OVCAR-8 ovarian
[3] = system: EKVX NSCLC
[4] = system: SN12C renal
[5] = system: 786-0 renal
[6] = system: MDA-MB-435
[7] = system: MOLT-4 leukemia
[8] = system: SF-539 CNS
[9] = system: PC-3 prostate
[10] = system: RXF 393 renal

SMILES	TGI [1] [µM]	TGI [2] [µM]	TGI [3] [µM]	TGI [4] [µM]	TGI [5] [µM]	TGI [6] [µM]	TGI [7] [µM]	TGI [8] [µM]	TGI [9] [µM]	TGI [10] [µM]
CC[C@@]1(O)C(=O)OCc2c1cc1n(c2=O)Cc2c-1nc1ccccc1c2/C=N\NC(=O)C(N)=O	> 45.1	37	> 100	> 100	16	> 100	> 23.7	0.177	> 100	37.5
COc1cc(C(c2cc(OC)c(OC)c(OC)c2)N2C(=O)CCC2C(=O)O)cc(OC)c1OC (stereo not given)	> 100	> 100	> 100	> 100	> 100	> 100	> 100	> 100	> 100	> 100
Nc1ccc(S(=O)(=O)c2ccc(N=[N+]([O-])c3ccc(S(=O)(=O)c4ccc(N)cc4)cc3)cc2)cc1	> 54.3	> 100	> 100	> 100	60.3	> 100	> 100	58.1	> 100	57.8
CCOC(=S)SC/C(=N\OC(C)(C)OC)c1ccccc1	> 100	> 100	> 100	> 100	> 100	65.7	65.2	> 100	> 100	70
O=C(Nc1ccc(Cl)cc1)c1cc(S(=O)(=O)NC2=NC(c3ccccc3)c3cc(Cl)ccc3N2)c(SSc2cc(Cl)c(C(=O)Nc3ccc(Cl)cc3)cc2S(=O)(=O)NC2=NC(c3ccccc3)c3cc(Cl)ccc3N2)cc1Cl (stereo not given)	> 100	> 100	> 100	> 100	> 100	> 100	> 61.6	> 100	> 100	> 100
CCOc1ccc(-n2c(=O)n3c(Nc4ccc(Cl)cc4)nc4c(c(=O)n(C)c(=O)n4C)n3c2=O)cc1	> 100	> 100	89.6	74.6	> 100	39.7	69.9	> 100	> 100	43.2
COc1cc(C(=O)OC2CC(C)=CC[C@@]3(C)CC[C@](O)(C(C)C)C23)ccc1O (stereo not given in full)	32.4	36.6	34.6	37.2	31.3	> 100	40.6	29.7	31.9	35.4
O=C1O[C@H](COC(=O)c2ccccc2)[C@@H](OC(=O)c2ccccc2)C=C1OC(=O)c1ccccc1	39.4	45.4	34.3	36.9	33.7	69.9	56	32.5	62.7	31.4
Cc1noc(C)c1N=Nc1ccc2nonc2c1N	> 100	> 100	9.77	> 100	> 100	> 100	> 100	92.5	> 100	> 100
CCOC(=O)c1[nH]n(-c2ccccc2)c(=O)c1C=NC(=S)C(N)=S	> 100	> 100	97.7	> 100	38.2	> 100	> 100	57.4	> 100	65.1
CCCCCCCCC[C@@H]1C[C@@H]2CCC3C(C(=O)OCCCCNC(=O)OCc4ccccc4)=C(C)NC(=N1)N32 (stereo not given in full)	10.3	8.7	7.76	10.7	3.2	9.82	6.41	14.4	7.32	7.34
Cc1cc(O)c(/C=N/C(=O)NN)c(=O)o1	> 100	> 100	> 100	> 100	> 100	> 100	> 100	> 100	> 100	> 100
CC1(C)CC(=O)C2=C(C1)N(c1ccccc1)C1(O)C=CC(=O)C3=C(O)c4ccccc4C(=O)C321 (stereo not given)	> 100	> 100	> 100	> 100	> 100	54	> 100	70.6	63.5	39.6
CCC(c1nc2ccccc2c(=O)n1NC(=O)C(C)(C)C)C1(O)CCCCC1 (stereo not given)	> 100	> 100	> 100	> 100	> 100	> 100	> 100	> 100	> 100	> 100
COC(=O)C1(Cc2ccc3c(c2)CCC3)Cc2cc3c(cc2C1=O)CCC3 (stereo not given)	> 46.4	> 46.4	> 46.4	> 46.4	> 46.4	43	38.7	> 46.4	> 46.4	> 46.4
O=C(O)[C@H]1NC[C@@H]2ON=C(Br)[C@@H]21	> 100	> 100	> 100	> 100	> 100	> 100	> 100	> 100	> 100	> 100
